{
  "source": "patent US5436243A",
  "about": "“Aminoanthraquinone derivatives to combat multidrug resistance” (priority 1993, dated 1995)",
  "key": {"mice": {"tested_on": "mice", "assay": "Preliminary animal toxicity studies", "type": "in vivo", "conditions": "400 mg/kg"}, "serine threonine kinases": {"tested_on": "serine threonine kinases", "assay": "In vitro assays of serine threonine kinases", "type": "biochemical"}, "[1]": {"assay": "Partition in Bligh-Dyer extracts", "type": "physicochemical", "conditions": "Bligh-Dyer extracts of treated cells", "method": "At these wavelengths, there was minimal absorbance by cellular components contained in the chloroform phase. […] METHOD: […] The monolayers were treated with 25 μM 1b or 1c and incubated at 37° C. After incubating the samples for the times indicated in FIG. 1, the monolayers were washed three times with DPBS and detached using 1 ml of Trypsin-EDTA.An aliquot of the cell suspension was counted using a Coulter Counter and a 0.8 ml aliquot was extracted in a Bligh-Dyer extraction (Bligh et at., Can. J. Biochem. 31:911-916 (1959)). The absorbance of the lower chloroform phase was measured at 648 nm and 600 nm using a spectrophotometer. The amount of 1b or 1c present in the extract was quantitated from a standard curve performed in cell extracts. The data is expressed as nmol anthraquinone/10^6 cells."}, "P-glycoprotein": {"tested_on": "P-glycoprotein", "assay": "Phosphorylation of P-glycoprotein in intact MCF7 Adr 10 cells", "type": "cell-based, human", "conditions": "MCF7 Adr 10, representative time course experiment, FIG. 12", "excerpt": "The effects of compound 1c on phosphorylation of the P-glycoprotein and the MARCKS protein (myristoylated alanine-rich C kinase substrate) was studied in intact cells labeled with [^32 P] orthophosphate. The MARCKS protein (also known as the 80 to 87 kD protein) is observed to be rapidly phosphorylated subsequent to PKC activation by phorbol esters, cell permeant diacylglycerols, growth factor and hormonal stimulation in a variety of cell types from several species. […] In these experiments, phosphorylation of MARCKS was used as a marker of cellular PKC activity. The effects of 1c on phosphorylation states of the P-glycoprotein and MARCKS protein were studied to test the possibility that this compound may be inhibiting PKC in cells; due to metabolism to an active PKC inhibitor or by achieving inhibitory concentrations in the microenvironment of the P-glycoprotein.\nMETHOD: A monoclonal antibody to the P-glycoprotein, C219, was used to immunoprecipitate the P-glycoprotein and a polyclonal rabbit antibody was used to immunoprecipitate the MARCKS protein from extracts of cells labeled with [^32 P]. MARCKS was immunoprecipitated after preclearing the aliquot with normal rabbit IgG. MCF7 Adr 10 cells were labeled with [^32 P] orthophosphate for two hours. […] P-glycoprotein and MARCKS were immunoprecipitated from aliquots of the same sample containing equivalent radioactivity."}, "[2]": {"tested_on": "A704 human renal cell line", "assay": "Vinblastine accumulation assay, A704", "type": "cell-based", "conditions": "10 μM, 10 nM [3H] vinblastine", "method": "These cell lines are models of intrinsic resistance.\n[^3 H] vinblastine was added to a final concentration of 10 nM and the cells were incubated for 2.5 hours. At this time, the cells were washed 3 times in ice cold PBS and lysed in buffer containing 0.1% Triton X-100."}, "MCF7 WT": {"tested_on": "MCF7 WT", "assay": "Tumor cell clonogenic assay, MCF7 WT", "type": "cell-based, human", "description": "The tumor cell clonogenic assays measure clonal proliferation of tumor cells. In this assay, 300-500 cells are plated in 10 cm^2 wells, allowed to adhere overnight, and are treated the following day. Tumor cell colonies were counted after 10-12 days of culture. […] The IC50's are calculated as described above for the MTT proliferation assays."}},
  "data": [
    {"smiles": "O=C1c2ccccc2C(=O)c2c(NCCCN3CCOCC3)ccc(NCCCN3CCOCC3)c21", "note": "[Compound 1c, 1,4-bis-[[3'(4-morpholino)propyl]amino]anthraquinone]", "values": [
      {"measurement": "toxicity in mice", "setting": "mice", "result": "not toxic at 400 mg/kg in mice"},
      {"measurement": "activity in in vitro assays of serine threonine kinases", "setting": "serine threonine kinases", "result": "does not show significant activity"},
      {"measurement": "blue color partitioning with cellular phospholipids in the lower chloroform phase", "setting": "[1]", "result": "> 95", "unit": "%"},
      {"measurement": "increase of P-glycoprotein phosphorylation", "setting": "P-glycoprotein", "result": 6.6, "unit": "fold"},
      {"measurement": "vinblastine accumulation relative to verapamil", "setting": "[2]", "result": "comparable or superior to verapamil activity"},
      {"measurement": "IC50", "setting": "MCF7 WT; Homo sapiens, MCF7, tumor cell clonogenic assay, 10-12 days, read-out: Continuous Exposure IC50, MCF7 WT", "result": 800, "unit": "nM"},
      {"measurement": "antiproliferative effect relative to human CFU-GM", "setting": "MCF7 WT; sensitive cancer cells, clonal proliferation assays", "result": "approximately 10 times"}
    ]}
  ]
}
